Assay results published in patent US20030229082A1, “Inhibition of RNA function” (The Regents of the University of California, priority 2002, published 2003).
Where two headings read alike, the source gives them in different places.

Assays:
[1] = tested on: DLS SL1 CA-loop RNA (dimer linkage site stem-loop 1); assay: NMR line broadening of ligand signals; type: binding, HIV-1
Ribosomal A-site RNA [2] = assay: NMR line broadening of ligand signals; type: binding
Polio virus loop B RNA [3] = type: binding
[4] = tested on: DLS SL1 CA-loop RNA (dimer linkage site stem-loop 1); assay: Saturation transfer difference (STD) NMR binding experiment; parameters: species or system HIV-1
HIV-1 TAR RNA [5] = assay: as above
Ribosomal A-site RNA [6] = assay: TOCSY/NOESY NMR chemical shift mapping; type: binding
Polio virus loop B RNA [7] = type: binding; remark: listed apart in the source
HIV-1 TAR RNA [8] = assay: NMR line broadening of ligand signals; type: binding
CVB3 loop D RNA [9] = assay: NMR line broadening of ligand signals; type: binding, coxsackievirus B3
[10] = tested on: RNA targets (ribosomal A-site, polio virus, DLS SL1, CVB3); type: binding; conditions: specific tertiary RNA motifs, loops and bulges
CVB3 loop D RNA [11] = assay: Saturation transfer difference (STD) NMR binding experiment; parameters: species or system coxsackievirus B3
Polio virus loop B RNA [12] = type: binding; conditions: first part of cell TOCSY/NOESY
[13] = tested on: Tat-TAR interaction (TAR with hybrid CycT1-Tat protein); assay: Electrophoretic mobility shift assay (EMSA, gel shift); type: binding, HIV-1; conditions: for Gel Shift Assay: HIV-1 TAR; for prevention of the binding between Tat and TAR (EMSA): concentrations between 0.1 and 1 μM, hybrid CycT1-Tat protein and TAR each at 0.1 μM; for binding to the TAR region: in vitro
From the text: RNA Binding Assays In vitro (Electrophoretic Mobility Shift Assay; EMSA)
EMSA is an effective method for determining whether TAR forms a complex with Tat and human cyclin T1. n the presence of TAR, containing the 5′ bulge and central loop, and these proteins, a lower mobility complex was observed on polyacrylamide gels. The lack of higher order complex formation signifies that a compound can block this RNA-protein interaction. […] These phenothiazines are used clinically as antipsychotic, sedative and antiemetic agents.

HIV-1 TAR RNA [14] = assay: TOCSY/NOESY NMR, structure of the acetylpromazine-TAR complex; type: binding
Description: Five different samples of the 31-nucleotide TAR were prepared: unlabeled, uniformly ^13C,^15N-labeled, type-specifically ^13C,^15N-labeled at G, A or C residues, respectively. All samples were prepared by in vitro transcription using T7 RNA polymerase and a synthetic DNA template and purified as described in Du, et al., Biochemistry 35, 4187 (1996). Acetylpromazine was purchased from Research Diagnostics Inc. Final sample conditions were 1-2 mM RNA in 10 mM sodium phosphate buffer (pH 6.5), 20 mM sodium chloride. Acetylpromazine was added in about two-fold excess over RNA.
The solution structure of the acetylpromazine-TAR complex was determined using a protocol very similar to that previously described by Schmitz, U., et al, (1999) Structure of the phylogenetically most conserved domain of SRP RNA, RNA 5, 1419-1429.
All NMR experiments were performed on Varian Inova 600 MHz spectrometers. Spectra were processed with NMRpipe and analyzed with SPARKY. Homonuclear 2D NOESY spectra in H2O were collected at 10° C. using the SSNOESY pulse sequence.
Due to the large number of intermolecular NOEs, 51, between acetylpromazine and TAR, binding of acetylpromazine to the 5′ bulge is very well defined.
The […] of acetylpromazine inserts between base pairs G26-C39 and A22-U40, preventing continuous stacking of the lower and upper stems as observed in structures induced by argininamide or Tat-peptide. However, another set of base-stacking interactions is created. U23 continues stacking on A22 in the fashion of an A-helix. This is evident by the NOEs from U23 H6 to A22 H2′ and H3′, and from U23 H1′ to A22 H2. Benzene ring II of acetylpromazine is stacked on U40. Stacking of U23 on A22 and benzene ring II on U40 arranges the U23 base and benzene ring II such that they look like an extra base pair continuing helical stacking on the A22-U40 base pair. This “pseudo base-pair” may contribute to the creation of a deeper minor groove (compared to the standard A-helix) to accommodate the aliphatic moiety of acetylpromazine. […]

Ribosomal A-site RNA [15] = assay: Saturation transfer difference (STD) NMR binding experiment; conditions: for STD signals @ 0.4-0.6 mM drug: Ribosomal A-site RNA
[16] = tested on: DLS SL1 CA-loop RNA (dimer linkage site stem-loop 1); assay: TOCSY/NOESY NMR chemical shift mapping; type: binding, HIV-1
A-site RNA [17] = assay: STD NMR competition experiment with paromomycin; type: binding; conditions: calculated from IC50 of the STD competition with paromomycin by Cheng and Prusoff correction; read-out: KD for the interaction with A-site RNA
A-site RNA [18] = conditions: value stated for the competitor; read-out: KD of the high affinity drug (competitor) for A-site RNA; cited from earlier work
[19] = tested on: Tat transactivation via TAR; assay: Chloramphenicol acetyl transferase (CAT) assay in HeLa cells, HIV-1 LTR and Tat; conditions: concentrations between 5 and 20 μM, dose-dependent
HeLa cells = conditions: human, 3 days

| SMILES | Line broadening (Ribosomal A-site RNA [2]) | STD signals @ 0.4-0.6 mM drug (HIV-1 TAR RNA [5]) | Line broadening (HIV-1 TAR RNA [8]) | Gel Shift Assay [13] | prevention of the binding between Tat and TAR (EMSA) [13] | binding to the TAR region [13] | STD signals @ 0.4-0.6 mM drug (Ribosomal A-site RNA [15]) | further results |
| --- | --- | --- | --- | --- | --- | --- | --- | --- |
| CC(=O)c1ccc2c(c1)N(CCCN(C)C)c1ccccc1S2 [(1), 10-[3-(dimethylamino)-propyl)phenothiazin-2-yl methyl ketone] | yes | yes | yes | positive | prevent completely | bind | yes | Line broadening [1]: yes; STD signals @ 0.4-0.6 mM drug (Polio virus loop B RNA [3]): yes; STD signals @ 0.4-0.6 mM drug [4]: yes; NOESY data (Ribosomal A-site RNA [6]): yes/yes; TOCSY data (Ribosomal A-site RNA [6]): yes/yes; Line broadening (Polio virus loop B RNA [7]): yes; Line broadening (CVB3 loop D RNA [9]): yes; binding to RNA motifs by chemical shift mapping (TOCSY) [10]: binds to specific tertiary RNA motifs such as loops and bulges; STD signals @ 0.4-0.6 mM drug (CVB3 loop D RNA [11]): yes; TOCSY data (Polio virus loop B RNA [12]): yes/no data; inhibition of the interaction of TAR and Tat ([13]; compound at 100 nM, TAR and Tat both at 100 nM): completely inhibited; binding site on TAR in solution (NMR-derived structural model) (HIV-1 TAR RNA [14]; 5′ bulge): binds to the 5′ bulge of TAR; TOCSY data (HIV-1 TAR RNA [14]; first part of cell TOCSY/NOESY): yes/yes; NOESY data (HIV-1 TAR RNA [14]; second part of cell TOCSY/NOESY): yes/yes; TOCSY data [16]: yes/no data; Kd (A-site RNA [17]): ~10 µM |
| CN(C)CCCN1c2ccccc2Sc2ccccc21 [(2)] | yes |  |  | positive |  |  | yes |  |
| CN(C)CCCN1c2ccccc2Sc2ccccc21 [(3)] | yes |  |  | negative |  |  | no |  |
| CN(C)CCCN1c2ccccc2Sc2ccccc21 [(4)] | yes |  |  | positive |  |  | yes |  |
| CN(C)CCCN1c2ccccc2Sc2ccccc21 [(5)] | yes |  |  | negative |  |  | yes |  |
| CN(C)CCCN1c2ccccc2Sc2ccccc21 [(6)] | little |  | yes | positive |  |  | no |  |
| OCCNCCCN1c2ccccc2Sc2ccc(Cl)cc21 [(7)] |  | yes | yes |  |  |  |  |  |
| CCCCNCCCN1c2ccccc2Sc2ccc(Cl)cc21 [(8)] |  | yes | yes |  |  |  |  |  |
| Clc1ccc2c(c1)N(CCCN1CCCCC1)c1ccccc1S2 [(9)] |  | yes | little |  |  |  |  |  |
| Clc1ccc2c(c1)N(CCCNCc1ccccc1)c1ccccc1S2 [(10)] |  | yes | little |  |  |  |  |  |
| Clc1ccc2c(c1)N(CCCn1ccnc1)c1ccccc1S2 [(11)] |  | yes |  |  |  |  |  |  |
| CN(C)CCCN1c2ccccc2Sc2ccc(Cl)cc21 [chlorpromazine, 2-chloro-10-(dimethylaminopropyl)phenothiazine] |  |  |  |  | prevent completely | bind |  |  |
| NC[C@@H]1O[C@H](O[C@H]2[C@@H](O)[C@H](O[C@@H]3[C@@H](O)[C@H](N)C[C@H](N)[C@H]3O[C@H]3O[C@H](CO)[C@@H](O)[C@H](O)[C@H]3N)O[C@@H]2CO)[C@H](N)[C@@H](O)[C@@H]1O [paromomycin] |  |  |  |  |  |  |  | Kd (A-site RNA [18]): 0.2 µM |
| CN1CCN(CCCN2c3ccccc3Sc3ccc(Cl)cc32)CC1 [prochlorperazine] |  |  |  |  | prevent completely | bind |  | inhibition of Tat transactivation [19]: up to 6 fold; concentration at which significant cellular toxicity resulted (HeLa cells): > 20 µM |
| CCSc1ccc2c(c1)N(CCCN1CCN(C)CC1)c1ccccc1S2 [thiethylperazine] |  |  |  |  | did not | not found to have such binding activity |  |  |
| CN1CCN(CCCN2c3ccccc3Sc3ccc(C(F)(F)F)cc32)CC1 [trifluoperazine] |  |  |  |  | did not | not found to have such binding activity |  | inhibitory effect on the RNA of the ribosomal A-site (Ribosomal A-site RNA [15]; method not specified): inhibitory effect |
